Measured values from patent US20250243219A1, “MACROCYCLIC COMPOUNDS AND USES THEREOF” (Cypralis Limited, priority 2022, published 2025).

Key:
cyclophilin A = cyclophilin A (Homo sapiens (Human), UniProt P62937); test: Functional peptidyl prolyl isomerase (PPIase) spectrophotometric assay, cyclophilin A; type: biochemical; conditions: first value of CypA/D cell
From the text: (§1) Cyclophilins are enzymes that catalyse the cis-trans isomerisation of peptide bonds to the amino acid proline. This event is important in many biological processes, including protein folding and signal transduction. […] The method to measure this activity and its inhibition is similar to that described by Jankowski (Analytical Biochemistry, 252, 2, 299-307 (1997)). The assay measures the cis to trans isomerisation of a peptide substrate catalysed by a PPlase enzyme using a UV/Vis spectrophotometer. This assay is a manual single cuvette-based assay. A first order rate equation is fitted to the absorbance data to obtain a rate constant. The catalytic rate is calculated from the enzymatic rate minus the background rate. The Ki (the concentration required to produce half maximum inhibition) for an inhibitor is obtained from the rate constant plotted against the inhibitor concentration. Typically, a 6-point dose response curve is obtained from duplicates and a Ki determined. Data are given in Table 5 as Ki [nM] for cyclophilins A and D, expressed in column 2 of Table 5 as Ki (cypA)/Ki (cypD).

cyclophilin D = cyclophilin D (Homo sapiens (Human), UniProt P30405); test: Functional peptidyl prolyl isomerase (PPIase) spectrophotometric assay, cyclophilin D; type: biochemical; conditions: second value of CypA/D cell; read-out: Ki CypD
From the text: as §1

[1] = tested on: permeabilised HepG2 cells; test: Calcium retention capacity (CRC) assay in permeabilised HepG2 cells (MPTP opening); type: cell-based, human; design: CRC [10 μM]: unit not given here; conditions: compound at 10 μM; for CRC [10 μM]: digitonin permeabilised HepG2 cells; for CRC [10 μM] (ratio vs CsA): normalised to cyclosporin A, value in brackets
Method: The use of permeabilised cells means that inhibitory compounds that may not normally enter non-permeabilised cells are more likely to be active.
The calcium retention capacity (CRC) is a measure of the capability of mitochondria to retain calcium, primarily in the form of calcium phosphates, in the mitochondrial matrix.
In a CRC assay, the calcium indicator Calcium Green-5N (InVitrogen) is utilized. […] The assay is carried out in HepG2 (human hepatocellular carcinoma) cells which are digitonin permeabilized. Trains of calcium pulses (typically 5 μM additions) are added which results in a sudden increase in fluorescence which is then reduced by mitochondrial buffering. The cells will reach a point at which the calcium addition is no longer buffered, an indication that the MPTP has opened (mitochondrial permeability transition).
The experiment is performed with and without inhibitor. A compound that acts to inhibit the mitochondrial pore opening will result in a greater requirement for calcium to reach the transition point. The results are normalised to a positive control (cyclosporin A) in each experiment. The results are shown in column 3 of Table 5 as CRC [10 μM] (ratio vs CsA). The method of digitonin permeabilised whole cell CRC assay is similar to that used by Chiara et al. (PLoS One, March, 3, 3, e1852 (2008)).

SH-SY5Y cells = test: Thapsigargin treated cell death assay in SH-SY5Y cells; type: cell-based, human; conditions: compound at 10 μM, positive = protection from cell death, negative = compound toxicity
From the text: Thapsigargin raises intracellular free calcium (Ca^2+) by potently inhibiting the endoplasmic reticulum Ca-ATPase, which sequesters Ca^2+ from the cytosol. The increased cytosolic Ca^2+ concentration is buffered by mitochondria by exchanging Ca^2+ for K, leading to depolarisation in the inner mitochondrial membrane and permeability transition.
The thapsigargin treated Jurkat cell death assay is a homogeneous 96 well plate based assay for cell death, instigated by the opening of the mitochondrial permeability transition pore (MPTP). The addition of thapsigargin to Jurkat cells results in an influx of calcium, the increase in intracellular calcium will initially be buffered by the mitochondria, but eventually the increasing calcium concentration will result in the opening of the MPTP, resulting in cell death.
CellTox™ Green is a dye which is unable to enter the cell until cell death leads to the loss of membrane integrity. Once this happens the CellTox™ Green enters the cell, binds to the cell's DNA and emits a fluorescent signal. […] Unless otherwise stated, the assay is typically run using a range of three compound concentrations of 1, 3 and 10 μM in triplicate and is read kinetically over a period of 24 hours. Compounds are added 30 minutes before the addition of thapsigargin. Compound only controls and positive control, cyclosporin A (CsA) (3 and 10 μM) are also included in the assay. Results are typically calculated at the 8 hour time point and the kinetic data is also reported.
The assay is carried out as described for the Jurkat cells but using the SH-SY5Y (human neuroblastoma) cell line instead of Jurkat cells. The results are shown in the fourth column of Table 5 (SY5Y [10 μM]% recovery). Positive numbers indicate protection from cell death, negative numbers indicate compound toxicity.

Sequence of cyclophilin D (P30405 30-207, species assumed): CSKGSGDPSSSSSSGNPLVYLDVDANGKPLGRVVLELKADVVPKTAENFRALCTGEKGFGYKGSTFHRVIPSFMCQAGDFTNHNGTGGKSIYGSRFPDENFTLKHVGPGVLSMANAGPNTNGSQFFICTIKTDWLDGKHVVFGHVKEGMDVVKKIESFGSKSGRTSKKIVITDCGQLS
Sequence of cyclophilin A (P62937 whole entry, species assumed): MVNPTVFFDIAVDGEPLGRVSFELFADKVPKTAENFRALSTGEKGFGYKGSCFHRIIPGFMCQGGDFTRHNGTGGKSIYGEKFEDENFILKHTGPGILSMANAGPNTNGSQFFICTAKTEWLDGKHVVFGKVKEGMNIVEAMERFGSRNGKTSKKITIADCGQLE

Ki (cyclophilin A) [µM]	Ki (cyclophilin D) [µM]	Structure (SMILES)	CRC [10 μM] [1]	CRC [10 μM] (ratio vs CsA) ([1]; listed as 32)	SYSY [10 μM] % recovery (SH-SY5Y cells; listed as 51) [%]	SYSY [10 μM] % recovery (SH-SY5Y cells; listed as 52) [%]	CRC [10 μM] (ratio vs CsA) [1]
0.55	1.3	CC(C)[C@H]1OC(=O)C(C)(C)/C=C/c2ccc3ccc(nc3c2)N(C)NC(=O)[C@@H]2CCCN(N2)C(=O)[C@H](C)NC1=O [Compound (3)]	–	–	–	–	0.5
0.0053	0.0087	CC(=O)N1NC(=O)[C@@H]2CCCN(N2)C(=O)[C@H](C)NC(=O)[C@H](C(C)C)OC(=O)C(C)(C)/C=C/c2ccc3ccc1nc3c2 [Compound (10)]	–	–	–	–	–
0.28	0.083	C[C@@H]1NC(=O)[C@H](Cc2ccc(C(=O)O)cc2)OC(=O)C(C)(C)/C=C/c2ccc3ccc(nc3c2)N(C)N(C)C(=O)[C@@H]2CCCN(N2)C1=O [Compound (11)]	20	–	–	–	0.80
0.051	0.17	CC(=O)N1CCC[C@@H](C[C@@H]2OC(=O)C(C)(C)/C=C/c3ccc4ccc(nc4c3)N(C)NC(=O)[C@@H]3CCCN(N3)C(=O)[C@H](C)NC2=O)C1 [Compound (29)]	20	–	–	–	0.67
0.0012	0.0058	C[C@@H]1NC(=O)[C@H](Cc2ccc(O)cc2)OC(=O)C(C)(C)/C=C/c2ccc3ccc(nc3c2)N(C)NC(=O)[C@@H]2CCCN(N2)C1=O [Compound (42)]	25	–	–	–	0.8
0.061	0.14	CC(C)C(=O)N1CCN(C[C@@H]2OC(=O)C(C)(C)/C=C/c3ccc4ccc(nc4c3)N(C)NC(=O)[C@@H]3CCCN(N3)C(=O)[C@H](C)NC2=O)C[C@@H]1C [Compound (45)]	15	–	–	–	0.60
0.027	0.021	CC(C)NC(=O)c1ccc(C[C@@H]2OC(=O)C(C)(C)/C=C/c3ccc4ccc(nc4c3)N(C)NC(=O)[C@@H]3CCCN(N3)C(=O)[C@H](C)NC2=O)cc1 [Compound (47)]	17.5	–	–	–	1.00
–	0.7	CC(C)[C@@H]1OC(=O)C(C)(C)/C=C/c2ccc3ccc(nc3c2)N(C)NC(=O)[C@@H]2CCCN(N2)C(=O)[C@@H](Cc2ccccc2)NC1=O [Compound (77)]	15	–	–	–	0.39
–	0.36	CC(C)[C@@H]1OC(=O)C(C)(C)/C=C/c2ccc3ccc(nc3c2)N(C)NC(=O)[C@@H]2CCCN(N2)C(=O)[C@H](Cc2ccncc2)NC1=O [Compound (78)]	>10,000	–	–	–	–
0.32	0.15	CC(C)[C@H]1CC(=O)C(C)(C)/C=C/c2ccc3ccc(nc3c2)N(C)NC(=O)[C@@H]2CCCN(N2)C(=O)[C@H](C)NC1=O [Compound (82)]	–	–	–	–	–

The remaining lines, values behind:

Structure (SMILES)	Ki (cyclophilin A) [µM]	Ki (cyclophilin D) [µM]	CRC [10 μM] [1]	CRC [10 μM] (ratio vs CsA) ([1]; listed as 32)	SYSY [10 μM] % recovery (SH-SY5Y cells; listed as 51) [%]	SYSY [10 μM] % recovery (SH-SY5Y cells; listed as 52) [%]	CRC [10 μM] (ratio vs CsA) [1]
C[C@@H]1NC(=O)[C@@H](CC2CCCNC2)OC(=O)C(C)(C)/C=C/c2ccc3ccc(nc3c2)N(C)N(C)C(=O)[C@@H]2CCCN(N2)C1=O (single isomer, unassigned) [Compound (32)]	2.2	4.9	5	0.20	–	–	–
C[C@@H]1NC(=O)C(Cc2cccc(N)n2)OC(=O)C(C)(C)/C=C/c2ccc3ccc(nc3c2)N(C)NC(=O)[C@@H]2CCCN(N2)C1=O (single isomer, unassigned) [Compound (51)]	–	–	–	–	37	–	–
C[C@@H]1NC(=O)C(Cc2cccc(N)n2)OC(=O)C(C)(C)/C=C/c2ccc3ccc(nc3c2)N(C)NC(=O)[C@@H]2CCCN(N2)C1=O (single isomer, unassigned) [Compound (52)]	–	–	–	–	–	35	–
CC(C)[C@@H]1OC(=O)C(C)(C)/C=C/c2ccc3ncc(nc3c2)N(C)NC(=O)[C@@H]2CCCN(N2)C(=O)[C@H](C)NC1=O [Compound (4)]	0.0033	0.013	16.4	–	–	–	–
CC(C)[C@@H]1OC(=O)C(C)(C)CCc2ccc3ccc(nc3c2)N(C)NC(=O)[C@@H]2CCCN(N2)C(=O)[C@H](C)NC1=O [Compound (5)]	> 10	> 0.01	–	–	–	–	–
CC(C)[C@@H]1OC(=O)C(C)(C)/C=C/c2ccc3ccc(nc3c2)N(CCCO)NC(=O)[C@@H]2CCCN(N2)C(=O)[C@H](C)NC1=O [Compound (7)]	0.0367	0.0081	–	–	–	–	–
CC(C)[C@@H]1OC(=O)C(C)(C)/C=C/c2ccc3ccc(nc3c2)N2CCCN2C(=O)[C@@H]2CCCN(N2)C(=O)[C@H](C)NC1=O [Compound (8)]	0.0139	0.015	–	–	–	–	–
CC(C)C(=O)N1CCC2(/C=C/c3ccc4ccc(nc4c3)N(C)NC(=O)[C@@H]3CCCN(N3)C(=O)[C@H](C)NC(=O)[C@H](C(C)C)OC2=O)CC1 [Compound (15)]	0.0017	0.0099	38	–	–	–	1
CC(C)[C@@H]1OC(=O)C2(/C=C/c3ccc4ccc(nc4c3)N(C)NC(=O)[C@@H]3CCCN(N3)C(=O)[C@H](C)NC1=O)COCOC2 [Compound (18)]	0.26	0.37	10	–	–	–	0.33
CC(C)[C@@H]1NCC(C)(C)/C=C/c2ccc3ccc(nc3c2)N(C)NC(=O)[C@@H]2CCCN(N2)C(=O)[C@H](C)NC1=O [Compound (20)]	0.1	0.14	22.5	–	–	–	0.57
CC(C)[C@H]1C(=O)N[C@@H](C)C(=O)N2CCC[C@H](N2)C(=O)NN(C)c2ccc3ccc(cc3n2)/C=C/C(C)(C)CN1C [Compound (23)]	0.092	0.26	12.5	–	–	–	0.38
C[C@@H]1NC(=O)[C@H](C2CCCC2)CC(=O)C(C)(C)/C=C/c2ccc3ccc(nc3c2)N(C)NC(=O)[C@@H]2CCCN(N2)C1=O [Compound (24)]	0.019	0.012	–	–	–	–	–
C[C@@H]1NC(=O)[C@@H](CC2CCCN(C)C2)OC(=O)C(C)(C)/C=C/c2ccc3ccc(nc3c2)N(C)NC(=O)[C@@H]2CCCN(N2)C1=O (stereo partly shown) [Compound (28)]	5.9	–	5	–	–	–	0.17
C[C@@H]1NC(=O)[C@H](CN2CCCCC2)OC(=O)C(C)(C)/C=C/c2ccc3ccc(nc3c2)N(C)NC(=O)[C@@H]2CCCN(N2)C1=O [Compound (44)]	0.59	0.14	5	–	–	–	0.33
C[C@@H]1NC(=O)[C@H](CC2CCNCC2)OC(=O)C(C)(C)/C=C/c2ccc3ccc(nc3c2)N(C)NC(=O)[C@@H]2CCCN(N2)C1=O [Compound (58)]	0.08	0.0545	8.3	–	–	–	0.38
C[C@@H]1NC(=O)[C@H](C2CCOCC2)OC(=O)C(C)(C)/C=C/c2ccc3ccc(nc3c2)N(C)NC(=O)[C@@H]2CCCN(N2)C1=O [Compound (59)]	0.037	0.038	17.5	–	–	–	0.85
CC(C)[C@@H]1OC(=O)C(C)(C)/C=C/c2ccc3ccc(nc3c2)N(C)NC(=O)[C@@H]2CCCN(N2)C(=O)[C@H](CCC(=O)O)NC1=O [Compound (62)]	0.0056	0.0096	–	–	–	–	–
